Assay results: patent US20110206792A1, “COMPOSITIONS COMPRISING VITAMINS” (priority 2008, published 2011)

Experiment: Stability studies for Melatonin, Resveratrol and L-ascorbic acid in cosmetic serum (HPLC with diode array detection, 55 days)
Assay type: physicochemical
Conditions: for concentration in the mixed formulation: formulation containing all three compounds, unchanged over 55 days; for change of concentration/percentage over 55 days: mixed versus single component formulation, 25° C. and 40° C.
Procedure: Stability studies for Melatonin, Resveratrol and L-ascorbic acid in cosmetic serum Object of this work was the studies related to the stability of Melatonin, Resveratrol and L-ascorbic acid when individually present in formulation in comparison with a formulation in which they are simultaneously mixed together, in order to explore the potential stabilization of L-ascorbic acid by Melatonin. The stability studies were performed at 25° C. (room temperature) and 40° C. (oven) for 55 days. Four formulations were analyzed: one mixture containing the three compounds together plus 3 formulations, which individually contained the three compounds. The excipients were all the same in the four formulations. The method employed to follow formulation stability is an HPLC method with diode array detection, under gradient conditions, as specified in the previous report. The results of these studies are shown in the graphs reported in FIGS. 10, 11 and 12 as well as in the following Tables 1, 2 and 3 where the percentages of the three compounds in the formulation (p/p) are plotted against time. In particular, the percentages were determined over 55 days, by comparison with reference standard compounds.

[1] = mix (three compounds together), T = 25° C., day 0
[2] = mix (three compounds together), T = 25° C., day 2
[3] = mix (three compounds together), T = 25° C., day 50
[4] = mix (three compounds together), T = 25° C., day 55
[5] = mix (three compounds together), T = 40° C., day 0
[6] = mix (three compounds together), T = 40° C., day 42
[7] = mix (three compounds together), T = 40° C., day 44
[8] = mix (three compounds together), T = 40° C., day 48
[9] = mix (three compounds together), T = 40° C., day 51
[10] = mix (three compounds together), T = 40° C., day 55
[11] = single component formulation, T = 25° C., day 0
[12] = single component formulation, T = 25° C., day 2
[13] = single component formulation, T = 25° C., day 44
[14] = single component formulation, T = 25° C., day 48
[15] = single component formulation, T = 25° C., day 50
[16] = single component formulation, T = 25° C., day 55
[17] = single component formulation, T = 40° C., day 0
[18] = single component formulation, T = 40° C., day 42
[19] = single component formulation, T = 40° C., day 48
[20] = single component formulation, T = 40° C., day 51
[21] = single component formulation, T = 40° C., day 55
[22] = mix (three compounds together), T = 25° C., day 44
[23] = mix (three compounds together), T = 25° C., day 48
[24] = single component formulation, T = 40° C., day 44

| concentration in the mixed formulation | percentage of the compound in the formulation (p/p) [1] | percentage of the compound in the formulation (p/p) [2] | percentage of the compound in the formulation (p/p) [3] | percentage of the compound in the formulation (p/p) [4] | percentage of the compound in the formulation (p/p) [5] | percentage of the compound in the formulation (p/p) [6] | percentage of the compound in the formulation (p/p) [7] | percentage of the compound in the formulation (p/p) [8] | percentage of the compound in the formulation (p/p) [9] | percentage of the compound in the formulation (p/p) [10] | percentage of the compound in the formulation (p/p) [11] | percentage of the compound in the formulation (p/p) [12] | percentage of the compound in the formulation (p/p) [13] | percentage of the compound in the formulation (p/p) [14] | percentage of the compound in the formulation (p/p) [15] | percentage of the compound in the formulation (p/p) [16] | percentage of the compound in the formulation (p/p) [17] | percentage of the compound in the formulation (p/p) [18] | percentage of the compound in the formulation (p/p) [19] | further results | SMILES |
| --- | --- | --- | --- | --- | --- | --- | --- | --- | --- | --- | --- | --- | --- | --- | --- | --- | --- | --- | --- | --- | --- |
| 14.5% | 15.34% | 14.10% | 15.10% | 15.00% | 14.35% | 14.30% | 15.13% | 13.50% | 14.96% | 15.00% | 13.40% | 13.32% | 8.80% | 10.80% | 10.50% | 10.43% | 14.86% | 8.46% | 8.60% | change in L-ascorbic acid concentration (formulation containing all the three ingredients, 55 days): no change; loss of L-ascorbic acid (single component formulation, 25° C., 55 days): 22%; loss of L-ascorbic acid (single component formulation, 40° C., 55 days): 36%; percentage of the compound in the formulation (p/p) [20]: 9.00%; percentage of the compound in the formulation (p/p) [21]: 9.60% | O=C1O[C@H]([C@@H](O)CO)C(O)=C1O [L-ascorbic acid] |
| 0.20% | 0.20% | 0.25% | 0.23% | 0.20% | 0.18% | 0.17% | 0.18% | 0.14% | 0.18% | 0.20% | 0.28% | 0.33% | 0.30% | 0.26% | 0.31% | 0.30% | 0.26% | 0.25% | 0.29% | percentage of the compound in the formulation (p/p) [22]: 0.20%; percentage of the compound in the formulation (p/p) [23]: 0.20%; change of concentration/percentage over 55 days: does not change much; concentration in the single component formulation (same concentration found after 55 days of storage at 25° C. and 40° C.): 0.28%; percentage of the compound in the formulation (p/p) [24]: 0.25%; percentage of the compound in the formulation (p/p) [20]: 0.29%; percentage of the compound in the formulation (p/p) [21]: 0.28% | COc1ccc2[nH]cc(CCNC(C)=O)c2c1 [Melatonin] |
| 0.20% | 0.20% | 0.20% | 0.14% | 0.16% | 0.20% | 0.18% | 0.18% | 0.20% | 0.16% | 0.18% | 0.22% | 0.19% | 0.17% | 0.20% | 0.17% | 0.17% | 0.22% | 0.16% | 0.18% | degradation (in 55 days, in all the conditions, formulations kept at 25° C. and 40° C.): approximately 10%; percentage of the compound in the formulation (p/p) [22]: 0.14%; percentage of the compound in the formulation (p/p) [23]: 0.20%; change of concentration/percentage over 55 days: does not change significantly; percentage of the compound in the formulation (p/p) (single component formulation, T = 40° C., day 2): 0.19%; percentage of the compound in the formulation (p/p) [24]: 0.20%; percentage of the compound in the formulation (p/p) [20]: 0.20%; percentage of the compound in the formulation (p/p) [21]: 0.20% | Oc1ccc(C=Cc2cc(O)cc(O)c2)cc1 [Resveratrol] |
